Measurements reported in patent US8772512B2, “Crystallisation process for 1-(β-D-glucopyranosyl)-4-methyl-3-[5-(4-fluorophenyl)-2-thienylmethyl] benzene” (Janssen Pharmaceutica NV, priority 2009, dated 2014).

Tests used:
[1] = Particle size distribution by laser diffraction (Malvern Mastersizer 2000, wet dispersion); format: physicochemical; conditions: Fraunhofer optical model, hemihydrate; for particle size distribution D10: d10 cumulative undersize by volume, dispersed in 1% (w/v) polysorbate 20 in water; for particle size distribution D50: d50 cumulative undersize by volume; for particle size distribution D90: d90 cumulative undersize by volume
Method: Particle size of original compound (I) and crystallised compound (I) according to the procedure of Example 1 have been determined with laser diffraction (LD). For this purpose, a Malvern Mastersizer 2000 laser diffractometer (Malvern, U.K.) has been used, which was equipped with a Hydro 2000S wet dispersion module. Prior to analysis, an amount of ca. 200 mg of the product was dispersed in 1% (w/v) polysorbate 20 in water by means of vigorous shaking for 30 seconds. A representative portion of this dispersion was than added to the reservoir of the wet dispersion module, which for this purpose was filled with water. The liquid medium was circulated via the measurement cell of the instrument, to allow measurement of the product specific scattering pattern. Based on the scattering intensities as measured under different angles relative to the incoming collimated laser beam, for compound (I) the particle size distribution (PSD) by volume was calculated based on the Fraunhofer optical model. For the PSD, the d10, d50 and d90 cumulative undersize were reported as the relevant statistical descriptors.

[2] = Bulk and tap density (25 g in 100-ml graduated cylinder; 500 taps); format: physicochemical; conditions: for Bulk density: 25 g, volume in 100-ml graduated cylinder; for Bulk density / Tap density: hemihydrate; for Tap density: after 500 taps
Method: The bulk and tap densities of the crystallised 1-(β-D-glucopyranosyl)-4-methyl-3-[5-(4-fluorophenyl)-2-thienylmethyl] benzene hemihydrate were measured. The bulk density of 25 g of compound (I) was measured by recording its volume in a 100-ml graduated cylinder. Tap density volume was then measured after 500 taps.

particle size distribution D10 [1] [μm] | particle size distribution D50 [1] [μm] | particle size distribution D90 [1] [μm] | Bulk density [2] [g/mL] | Tap density [2] [g/mL] | bulk density higher than for original compound (I) ([2]; crystallised according to Example 1 versus original compound (I)) [%] | SMILES
20 | 49 | 102 | 0.35 | 0.54 | 20 | Cc1ccc([C@@H]2O[C@H](CO)[C@@H](O)[C@H](O)[C@H]2O)cc1Cc1ccc(-c2ccc(F)cc2)s1 [crystallised compound (I), 1-(β-D-glucopyranosyl)-4-methyl-3-[5-(4-fluorophenyl)-2-thienylmethyl] benzene hemihydrate]
14 | 43 | 116 | 0.28 | 0.48 | – | Cc1ccc([C@@H]2O[C@H](CO)[C@@H](O)[C@H](O)[C@H]2O)cc1Cc1ccc(-c2ccc(F)cc2)s1 [original compound (I), 1-(β-D-glucopyranosyl)-4-methyl-3-[5-(4-fluorophenyl)-2-thienylmethyl] benzene hemihydrate]
